Common to all, as to format: binding
In experiment [1] the test system is Antibody F7 (phosphorothioate-specific antibody; control pesticide chlorpyrifos-methyl). In words: competition ELISA, assay format 2 (pesticide-macromolecule conjugate on the solid phase, antibody in solution). As to conditions: Antibody F7, assay format 2, control pesticide CP; 30 min antibody incubation. The protocol:
The solid phase is coated with a pesticide-macromolecule conjugate. For the results listed in Table 1, the immunogen conjugate of chlorpyrifos-methyl (F7) was used. Following pretreatment to minimize non-specific binding of conjugate by treatment with a suitable protein or detergent, the sample to be analyzed is added. The grain, food or other sample may either be extracted in methanol, ethanol or other polar water-miscible solvent, or otherwise be extracted with a volatile organic solvent such as dichloromethane or acetone. The solvent may be removed by evaporation and the residue redissolved in a smaller volume of methanol. The extract or reconstituted residue is diluted in a protein and detergent - containing buffer and applied to the solid phase and antibody is added immediately. A standard is prepared in methanol and dilutions of this standard assayed simultaneously. Such antibody may either be enzyme-labelled by direct covalent association or a suitable amplification step used to detect binding of the antibody. Analysis by this technique is based on the competition between phosphorothioate in the test sample and solid phase- bound phosphorothioate, for binding to antibody in solution. There is a decrease in the binding of antibody as the concentration of organophosphate increases in the test sample; this is manifest in decreasing absorbance of the coloured enzyme product, in this example. The concentration of organophosphate may be assessed as described in assay format 1. Clean-up of the extracts was not necessary.
An antibody incubation time of 30 minutes was used, together with 20 min (2,2'-azino bis (3-ethylbenzthiazoline-6-sulfonic acid)) substrate incubation time. The overall assay time can be reduced to 5-10 minutes or increased to 18 hours for batchwise analysis of large numbers of (several hundred) samples.
The data shown in Table 1 are potencies relative to the control pesticide (determined as relative concentration yielding 50% inhibition of antibody binding). Absolute amounts of control pesticide yielding 50% inhibition of antibody binding in competition ELISA are: P9 (0.001 ng), F7 (50 ng), Pll (2 ng).

The subject of experiment [2] is Antibody P11 (phosphorothioate-specific antibody; control pesticide pirimiphos-methyl). In words: competition ELISA, assay format 1 (antibody on the solid phase, horseradish peroxidase-labelled phosphorothioate). To be noted: Antibody P11, assay format 1, control pesticide PY; 30 min incubation with enzyme conjugate. How it is done: (§1) The solid phase is coated with phosphorothioate-specific antibody. Preferentially the antibody is coated at 10µg/mL in 50mM sodium carbonate buffer, pH 9.6. Non-specific binding of immunoreactants is then minimized by treatment with a suitable protein or detergent, for example, 10mg/mL bovine serum albumin in 50mM sodium phosphate, pH 7.2 - 0.9% sodium chloride. The grain or food or other sample to be analyzed is extracted in neat methanol or ethanol, although other polar water-miscible solvents may be used; such as isopropanol, acetonitrile and acetone. Mixtures of water and these solvents may also be used. The grain, food or other extract is diluted five-fold in a protein and detergent-containing buffer (for example 10mg/mL bovine serum albumin or lmg/mL Teleostean fish skin gelatin in 0.05% (v/v) Tween in phosphate-buffered saline) applied to the solid phase and enzyme-labelled phosphorothioate (diluted similarly) is added immediately. A standard is prepared in methanol or ethanol and dilutions of this standard assayed simultaneously.
(§2) An incubation time of 30 min with chlorpyrifos-methyl (P9) or pirimiphos-methyl (P11) conjugated to horseradish peroxidase was used for the results shown in Table 1, together with 10 min chromogenic substrate (2,2'-azino-bis (3-ethyl benzthiazoline -6- sulfonic acid)) incubation time. The chromogen 3,3',5,5'-tetramethylbenzidine may also be used.
(§3) Analysis by this technique is based on the competition between phosphorothioate in the test sample and enzyme-labelled phosphorothioate for binding to phosphorothioate-specific antibody on the solid phase. There is a decrease in the binding of the enzyme-labelled phosphorothioate as the concentration of phosphorothioate increases in the test sample; this is manifest in decreasing absorbance of the coloured enzyme product. The concentration of phosphorothioate in an unknown sample may be determined by comparing the degree of inhibition of antibody binding caused by the addition of the sample extract with that resulting from the addition of known amounts of phosphorothioate. […]

For experiment [3], the system named is Antibody F9 (phosphorothioate-specific antibody; control pesticide chlorpyrifos-methyl). Described as above. As to conditions: Antibody F9, assay format 1, control pesticide CP; 30 min incubation with enzyme conjugate. The protocol: as §1, §2, §3

SMILES strings stand for the structures.

As to `CCOP(=S)(OCC)Oc1nc(Cl)c(Cl)cc1Cl` [chlorpyrifos-ethyl], in experiment [1], the “potencies relative to the control pesticide (relative concentration yielding 50% inhibition of antibody binding)” value amounted to 0.07. Still for that read-out and setting: in the case of `COP(=S)(OC)Oc1ccc([N+](=O)[O-])cc1` [methylparathion] it was 0.003; in that of `COP(=S)(OC)Oc1ccc([N+](=O)[O-])c(C)c1` [fenitrothion (FN), fenitrothion], 0.01.

Consider `CCN(CC)c1nc(C)cc(OP(=S)(OC)OC)n1` [pirimiphos-methyl (PY), pirimiphos-methyl], for which the “potencies relative to the control pesticide (relative concentration yielding 50% inhibition of antibody binding)” value in experiment [2] was determined as 1.0. `COP(=S)(OC)Oc1nc(Cl)c(Cl)cc1Cl` [chlorpyrifos-methyl (CP), chlorpyrifos-methyl]: the “potencies relative to the control pesticide (relative concentration yielding 50% inhibition of antibody binding)” value in experiment [1] and in experiment [3] was 1.0 throughout.

Take `COP(=S)(OC)Oc1ccc([N+](=O)[O-])cc1Cl` [dicapthon]: the “potencies relative to the control pesticide (relative concentration yielding 50% inhibition of antibody binding)” value in experiment [1] stood at 0.01. `CCOP(=S)(OCC)Oc1cc(C)nc(N(CC)CC)n1` [pirimiphos-ethyl]: the “potencies relative to the control pesticide (relative concentration yielding 50% inhibition of antibody binding)” value in experiment [2] came out at 2.9.

These data come from patent publication EP0479834B1, “COMPETITIVE ENZYME ASSAY FOR DETERMINATION OF PHOSPHOTHIOATE INSECTICIDES” (COMMONWEALTH SCIENTIFIC AND INDUSTRIAL RESEARCH ORGANISATION, priority 1989, dated 1991).
